Results taken from article PMC12037037 (Proceedings of the National Academy of Sciences of the …, 2025).

Key:
[1] = test system: panel of 55 central nervous system targets; assay: Competitive radioligand binding selectivity panel (Eurofins Discovery)
Protocol: Figure S3. Selectivity profiles for (+)-JRT and (–)-JRT across 55 central nervous system targets. The effects of (+)- JRT (10 μM) and (–)-JRT (10 μM) on a wide range of targets were assessed by Eurofins Discovery. Data represent % inhibition of the binding of a radioactively labeled ligand specific for each target. Assays were conducted in duplicate and the results were averaged.
Data Analysis and Statistics. Treatments were randomized, and data were analyzed by experimenters blinded to treatment conditions. Statistical analyses were performed using GraphPad Prism (version 10.0.3) unless noted otherwise.
All comparisons were planned prior to performing each experiment. No data were excluded. Data are represented as mean ± SEM, unless noted otherwise, with asterisks indicating *p < 0.05, **p < 0.01, ***p < 0.001, and ****p < 0.0001. Details of all statistical tests are shown in SI Appendix, Table S1. […]
Both (+)-JRT and (–)-
JRT were synthesized in-house and judged to be analytically pure based on NMR and LC-MS data. For cell culture experiments, VEH = 0.1% (agonist studies) or 0.2% (antagonist studies) molecular biology grade dimethyl sulfoxide (Sigma-Aldrich). For in vivo experiments, compounds were administered i.p. at 5 mL/kg using 0.9% saline as the vehicle, unless noted otherwise. VEH = USP grade saline (0.9%). Stock solutions for behavioral assays were prepared fresh before use.
Fumarate salts of (+)-JRT and (–)-JRT were used for all biological studies unless noted otherwise.
Animals. All experimental procedures involving animals were approved by the Institutional Animal Care and Use Committee (IACUC) at the University of California, Davis, the Salk Institute, Weill Cornell Medicine, McLean Hospital (Harvard Medical School), or the Contract Research Organization (CRO) where the study was performed. All procedures involving animals adhered to principles described in the National Institutes of Health Guide for the Care and Use of Laboratory Animals.
Animals were either obtained from Jackson Laboratory (Sacramento, C.A.) or bred in-house unless noted otherwise. Power analyses were conducted to ensure appropriate sample sizes for all experiments involving animals. Animals were housed 2–5 animals of the same sex per cage on a 12h light/dark cycle and were given ad libitum access to food and water unless noted otherwise. The University of California, Davis, the Salk Institute, and Weill Cornell Medicine are accredited by the Association for Assessment and Accreditation of Laboratory Animal Care International (AAALAC). Whenever possible, both sexes were utilized. However, a single sex was utilized in some cases when 1) a contract research organization had only […]
Radioligand Binding Selectivity Panel. Competitive radioligand binding studies for (+)-JRT (10 μM) and (–)-JRT (10 μM) were performed across a panel of receptors at Eurofins Discovery. Experiments were performed using the free bases of […]
radioligand and source of receptor (5,6,7,8,9,10,11,12).
Radioligand Binding Assays (5-HT2AR and 5-HT2CR). The 5-HT2AR and 5-HT2CR competitive radioligand binding assays were performed at Epics Therapeutics S.A. (Belgium, FAST-0505B) using conventional methods. Experiments were performed using the free bases of (+)-JRT and (–)-JRT. […] Nonspecific binding was determined by co-incubation with 200-fold excess of cold competitor DOI. […]

C57BL/6J mice = assay: Amphetamine-induced locomotion; assay type: in vivo; conditions: VEH + AMPH 3 mg/kg
Protocol: Figure S11. […] (A) Pretreatment with (+)-JRT (1 mg/kg,
(§1) IP) can block AMPH-induced hyperlocomotion in female, but not male, mice. (B) Pretreatment with (+)-JRT (1 mg/kg, IP) […]
(§2) AMPH = (+)-amphetamine; PCP = phencyclidine; VEH = vehicle; ns = not significant. *p < 0.05, **p < 0.01, ***p < 0.001, ****p < 0.0001, as compared to the comparator(s) indicated by a horizontal bar. See Methods and SI Appendix, Table S1 for full details on statistics.
(1 picture or pasted object on this page, not shown here)
Amphetamine-Induced Locomotion. The amphetamine-induced hyperlocomotion assay was performed using male and female C57BL/6J mice that were approximately 8 weeks old at the time of the experiments. Animals were first placed in the test arena (40 cm x 40 cm) for 15 min to obtain a basal reading of locomotion and habituate them to the testing arena.
Next, animals were administered (+)-JRT (1 mg/kg) or VEH (2.5 mL/kg, i.p) and placed back in the test arena. After 15 min, the animals were administered (+)-amphetamine (3 mg/kg) or VEH (2.5 mL/kg) and placed back in the test arena for 60 minutes. Locomotion during the entire experiment was quantified using ANYmaze Video Tracking System, version 7.07 (Stoelting Co.). The test arena was cleaned thoroughly with 70% ethanol between trials. […]
(§3) Reads were aligned to the GRCm39 genome assembly using STAR, processed with Picard, and counted with the Subread software. Transcript inclusion criteria consisted of a minimum raw expression level of 25 transcripts in a minimum of 4 samples. Surrogate variable analysis was conducted with the sva package 2023 release v3.5.0 in R and normalization and differential expression analysis was performed with DESeq2 v4.3 with a baseMean threshold of 10. Heatmaps were created with the pheatmap v1.0.12 with sample-wise z-scores plotted and both row and column grouping allowed using pearson's distances and ward.D for clustering. Gene-wise selection criteria for heatmaps were a baseMean expression threshold of 50 to focus on robustly expressed genes, p value < 0.05, and presence in the top 250 genes sorted by absolute value of log2FC. Additionally, z score was capped at 2 for visualization purposes. Schizophrenia gene sets were extracted from a recent TWAS study (30).
(§4) For Figure S8G, the TWAS set was filtered for FDR < 0.01. Permutation testing was conducted to quantify the overlap of top genes from schizophrenia TWAS with the perm_test function from the bulkWarehouse package 2023 release v1.2.7.
(§5) Briefly, the intersection of top differentially expressed genes and top TWAS genes is compared to an empirical distribution created by calculating the intersection with our top DEGs when randomly sampling candidate genes from our dataset equal to the size of the TWAS sample. […]

[2] = test system: cultured rat embryonic cortical neurons; assay: Neuritogenesis assay (Sholl analysis, DIV6); assay type: cell-based; conditions: 1 µM, DIV6, mean ± SEM
male Sprague Dawley rats = assay: Rat forced swim test (FST); assay type: in vivo; conditions: 10mg/kg IP, 24 h after administration
Protocol: as §3, §4
Briefly, the intersection of top differentially expressed genes and top TWAS genes is compared to an empirical distribution created by calculating the intersection with our top DEGs when randomly sampling candidate genes from our dataset equal to the size of the TWAS sample. Selection criteria from the TWAS include an expression level of 25 transcripts in a minimum of 4 samples in our dataset, FDR < 0.01 from the TWAS and top 250 sorted by absolute value of log2FC. Selection criteria from our gene set were an expression level of 25 transcripts in a minimum of 4 samples, p value < 0.1 and top 250 sorted by absolute value of log2FC.
Rat Forced Swim Test (FST). This study was performed by Psychogenics (Paramus, NJ). Male Sprague Dawley rats were purchased from Envigo (Indianapolis, IN), and were 8 weeks old at the time of the experiments. Upon receipt, they were assigned unique identification numbers (tail marked) and group housed in ventilated cages with 3 rats per cage. All animals […]
remained housed in groups of three for the remainder of the study. All rats were acclimated to the colony room for up to one week prior to dosing. During the period of acclimation, rats were examined and handled daily, and weighed to assure adequate health and suitability. The room temperature was maintained between 20 °C and 23 °C with a relative humidity of 30%–70%. Lab Rodent Diet 5001 (W.F. Fisher, Cat # 11015) and water were provided ad libitum. Animals were randomly assigned across treatment groups. All testing was performed during the light phase of the light/dark cycle. Behavioral testing was conducted according to established protocols approved by the IACUC committee and PGI Standard Operation Procedures (SOP). Each forced swim chamber was constructed of clear acrylic (height = 40 cm; diameter = 20.3 cm). Only one rat was placed in the swim chamber at a time for each swim test. The water was changed and the chamber cleaned between each animal. The water depth was 16 cm in the first swim session (pre-test) and 30 cm in the second swim session (test). The water was maintained at 23 °C ± 1 °C for all swim sessions. At the end of each swim test rats were dried with paper towels and returned to the home cage. All animals were carefully monitored to ensure their safety in the swim test and any animal unable to maintain a posture with its nose above water was immediately removed from the water and not used further in the study. Animals were first subjected to a pre-test for 15 min. Immediately after the pre-test, they were administered compounds or VEH via i.p. injection (1 ml/kg). Racemic ketamine hydrochloride (10 mg/kg) was used as a positive control. A salt correction factor of 1.36 was used when preparing formulations of (+)-JRT to ensure that the dose corresponded to that of the free base. […]

male Long Evans rats = assay: Probabilistic reward task (PRT) under chronic cold-water stress; assay type: in vivo; conditions: KET 10 mg/kg IP
male C57BL/6J mice = assay: PCP-induced locomotion (Psychogenics); assay type: in vivo; conditions: VEH + PCP 5 mg/kg IP; VEH + VEH 11101 ± 1709
Protocol: as §1, §2
(1 picture or pasted object on this page, not shown here) […]
PCP-Induced Locomotion. The PCP-induced hyperlocomotion assay was performed by Psychogenics using male C57BL/6J mice that were approximately 8 weeks old at the time of the experiments. The experiment was performed during the animal’s light cycle phase. On the day of testing, animals were acclimated to the experimental room for at least 1 h prior to treatment. Animals were then administered with VEH or JRT (IP, 10 mL/kg) and placed in holding cages for 30 min, after which mice were placed in the open field chambers (27.3 x 27.3 x 30.3; Med Associates Inc., St Albans, VT). Baseline activity was recorded for 30 min. Next, mice received either PCP (5 mg/kg, IP, 10 ml/kg) or VEH and were returned to the open field chambers for a 60 min test session. Locomotion was assessed using consecutive infrared beam breaks. At the end of each session, the chambers were thoroughly cleaned. […]
as §3, §4, §5

**Q.** How did the “Selectivity across panel of 55 central nervous system targets” value ([1]; 10 μM, free bases) turn out when `CCN(CC)C(=O)[C@H]1C=C2c3cccc4ccn(c34)C[C@@H]2N(C)C1` [(–)-JRT] was run?
**A.** highly selective for a subset of serotonin receptors

**Q.** And the “Affinity for dopamine, histamine, or adrenergic receptors” value ([1]; radioligand binding, unlike LSD)?
**A.** neither of these compounds exhibited affinity

**Q.** For `C[C@H](N)Cc1ccccc1` [AMPH, (+)-amphetamine, reference compound], which “Locomotion (Figure 11A Females)” value (C57BL/6J mice; female mice, VEH + VEH 101.9 ± 15.04) is on record?
**A.** 418.5 ± 32.97

**Q.** And the “Locomotion (Figure 11A Males)” value (C57BL/6J mice; male mice, VEH + VEH 59.80 ± 4.206)?
**A.** 330.5 ± 74.31

**Q.** With `CN1CCN(C2=Nc3cc(Cl)ccc3Nc3ccccc32)CC1` [CLZ, clozapine, reference compound] as the compound, how does the “Area under the curves of the Sholl plots (Figure S8D)” value ([2]; VEH 1.000 ± 0.05010) read?
**A.** 1.045 ± 0.04563

**Q.** What about the “Total branches (Figure S8C)” value ([2]; VEH 2.325 ± 0.2641) of the same compound?
**A.** 3.280 ± 0.2858

**Q.** And the “Number of primary dendrites (Figure S8B)” value ([2]; VEH 6.275 ± 0.2292)?
**A.** 7.620 ± 0.2586

**Q.** Which “Swimming (Figure 6B)” value (male Sprague Dawley rats; VEH 22.10 ± 1.929) does the source give for `CNC1(c2ccccc2Cl)CCCCC1=O` (centres unmarked) [Ketamine, ketamine, reference compound] here?
**A.** 34.10 ± 1.187

**Q.** What about the “Immobility (Figure 6B)” value (male Sprague Dawley rats; VEH 37.20 ± 1.867, of 60 scored behaviors) of the same compound?
**A.** 25.00 ± 1.265

**Q.** And the “Response bias (log b) (Figure 6G)” value (male Long Evans rats; Day 2, Day 1 0.120 ± 0.042)?
**A.** 0.330 ± 0.035

**Q.** What about the “Response bias (log b) (Figure 6G)” value (male Long Evans rats; Day 3, Day 1 0.120 ± 0.042) of the same compound?
**A.** 0.304 ± 0.091

**Q.** What about the “Response bias (log b) (Figure 6G)” value (male Long Evans rats; Day 11, Day 1 0.120 ± 0.042) of the same compound?
**A.** 0.266 ± 0.086

**Q.** What about the “Response bias (log b) (Figure 6G)” value (male Long Evans rats; Day 1 (stressed, before drug) 0.120 ± 0.042) of the same compound?
**A.** 0.457 ± 0.070

**Q.** `c1ccc(C2(N3CCCCC3)CCCCC2)cc1` [PCP, phencyclidine, reference compound] was tested. Which “Locomotion, infrared beam breaks (Figure 11B)” value (male C57BL/6J mice) did it give?
**A.** 26552 ± 1179
